We go through 14 compounds from patent publication US12312354B2, “Selective BTK irreversible inhibitors” (SAN DIEGO STATE UNIVERSITY FOUNDATION, priority 2019, dated 2025).

Experiment [1] concerns the target BLK (Homo sapiens, UniProt P51451). The experiment is described as follows: In vitro kinase assay, BLK. The format is biochemical.
Experiment [2] concerns the target BTK (Homo sapiens, UniProt Q06187). The experiment is described as follows: In vitro kinase assay (biochemical), BTK. The conditions noted are these: for IC50: in vitro kinase assay; for selectivity for BTK over BLK (BTK/BLK selectivity): ratio of BLK and BTK IC50.
Experiment [3] deals with HER2 (Homo sapiens, UniProt P04626). The experiment is described as follows: In vitro kinase assay, HER2. It is filed as biochemical.
Chain of HER2 (P04626 23-1255): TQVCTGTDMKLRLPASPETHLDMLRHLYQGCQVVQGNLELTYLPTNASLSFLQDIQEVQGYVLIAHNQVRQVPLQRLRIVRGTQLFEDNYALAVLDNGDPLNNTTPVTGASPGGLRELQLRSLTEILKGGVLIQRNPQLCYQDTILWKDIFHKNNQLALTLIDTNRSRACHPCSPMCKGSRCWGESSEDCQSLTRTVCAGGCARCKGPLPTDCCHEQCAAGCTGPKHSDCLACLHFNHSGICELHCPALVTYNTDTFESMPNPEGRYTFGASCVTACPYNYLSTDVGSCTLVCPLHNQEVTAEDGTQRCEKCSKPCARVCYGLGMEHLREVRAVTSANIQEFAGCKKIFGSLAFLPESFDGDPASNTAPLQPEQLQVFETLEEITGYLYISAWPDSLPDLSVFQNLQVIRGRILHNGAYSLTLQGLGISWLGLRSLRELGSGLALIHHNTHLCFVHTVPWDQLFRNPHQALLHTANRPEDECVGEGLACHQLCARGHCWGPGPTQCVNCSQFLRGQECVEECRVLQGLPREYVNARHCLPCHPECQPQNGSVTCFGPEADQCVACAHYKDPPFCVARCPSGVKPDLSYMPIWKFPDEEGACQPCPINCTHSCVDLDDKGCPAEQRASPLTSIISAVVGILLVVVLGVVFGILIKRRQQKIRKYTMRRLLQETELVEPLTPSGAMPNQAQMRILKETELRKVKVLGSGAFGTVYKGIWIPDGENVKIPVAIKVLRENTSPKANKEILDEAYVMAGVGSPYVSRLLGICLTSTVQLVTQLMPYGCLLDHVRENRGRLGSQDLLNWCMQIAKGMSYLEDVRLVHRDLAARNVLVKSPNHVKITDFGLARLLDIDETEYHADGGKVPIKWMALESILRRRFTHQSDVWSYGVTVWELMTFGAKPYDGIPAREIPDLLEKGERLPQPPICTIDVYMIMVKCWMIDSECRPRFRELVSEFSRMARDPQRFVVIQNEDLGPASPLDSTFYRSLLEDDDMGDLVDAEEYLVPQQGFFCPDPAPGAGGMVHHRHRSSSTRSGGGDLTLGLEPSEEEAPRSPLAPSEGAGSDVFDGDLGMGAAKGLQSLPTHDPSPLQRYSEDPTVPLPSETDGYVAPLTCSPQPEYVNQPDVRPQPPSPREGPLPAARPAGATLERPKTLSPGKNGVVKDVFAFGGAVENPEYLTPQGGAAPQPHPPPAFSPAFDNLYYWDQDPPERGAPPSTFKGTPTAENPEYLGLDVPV
Experiment [4] deals with T1, ITK (Homo sapiens, UniProt Q08881).
T1 sequence (Q08881 1-620): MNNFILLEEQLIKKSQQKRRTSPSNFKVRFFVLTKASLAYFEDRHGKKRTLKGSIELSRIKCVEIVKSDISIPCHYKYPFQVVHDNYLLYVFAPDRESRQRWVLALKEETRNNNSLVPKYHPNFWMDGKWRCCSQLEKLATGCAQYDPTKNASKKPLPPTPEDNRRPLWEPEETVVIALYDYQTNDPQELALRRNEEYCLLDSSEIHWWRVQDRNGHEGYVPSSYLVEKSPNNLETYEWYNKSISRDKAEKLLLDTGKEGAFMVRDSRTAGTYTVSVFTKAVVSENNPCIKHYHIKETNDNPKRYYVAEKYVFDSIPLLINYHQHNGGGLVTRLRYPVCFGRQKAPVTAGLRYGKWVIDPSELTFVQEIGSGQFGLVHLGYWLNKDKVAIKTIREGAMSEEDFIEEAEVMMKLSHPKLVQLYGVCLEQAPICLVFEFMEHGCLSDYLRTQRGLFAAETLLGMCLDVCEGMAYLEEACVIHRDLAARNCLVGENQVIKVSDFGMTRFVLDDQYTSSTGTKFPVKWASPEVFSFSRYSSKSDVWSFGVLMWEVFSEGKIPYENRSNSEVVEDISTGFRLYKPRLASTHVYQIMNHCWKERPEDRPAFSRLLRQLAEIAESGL
The experiment is described as follows: In vitro kinase assay, ITK. The format is biochemical.

Chain of BLK (P51451 whole entry): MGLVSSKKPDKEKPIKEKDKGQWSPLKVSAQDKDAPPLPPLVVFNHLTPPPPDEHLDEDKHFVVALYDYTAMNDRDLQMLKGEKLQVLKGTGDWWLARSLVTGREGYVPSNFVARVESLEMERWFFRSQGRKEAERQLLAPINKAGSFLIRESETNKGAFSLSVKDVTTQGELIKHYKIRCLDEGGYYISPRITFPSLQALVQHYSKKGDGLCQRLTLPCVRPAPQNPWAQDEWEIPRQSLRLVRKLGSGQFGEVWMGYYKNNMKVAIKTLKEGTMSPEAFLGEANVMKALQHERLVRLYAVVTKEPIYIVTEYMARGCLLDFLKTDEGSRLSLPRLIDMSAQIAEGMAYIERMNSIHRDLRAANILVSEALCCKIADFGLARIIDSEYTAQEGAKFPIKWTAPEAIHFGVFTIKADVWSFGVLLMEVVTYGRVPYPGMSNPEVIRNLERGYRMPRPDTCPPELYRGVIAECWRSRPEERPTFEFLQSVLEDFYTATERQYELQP
Chain of BTK (Q06187 whole entry): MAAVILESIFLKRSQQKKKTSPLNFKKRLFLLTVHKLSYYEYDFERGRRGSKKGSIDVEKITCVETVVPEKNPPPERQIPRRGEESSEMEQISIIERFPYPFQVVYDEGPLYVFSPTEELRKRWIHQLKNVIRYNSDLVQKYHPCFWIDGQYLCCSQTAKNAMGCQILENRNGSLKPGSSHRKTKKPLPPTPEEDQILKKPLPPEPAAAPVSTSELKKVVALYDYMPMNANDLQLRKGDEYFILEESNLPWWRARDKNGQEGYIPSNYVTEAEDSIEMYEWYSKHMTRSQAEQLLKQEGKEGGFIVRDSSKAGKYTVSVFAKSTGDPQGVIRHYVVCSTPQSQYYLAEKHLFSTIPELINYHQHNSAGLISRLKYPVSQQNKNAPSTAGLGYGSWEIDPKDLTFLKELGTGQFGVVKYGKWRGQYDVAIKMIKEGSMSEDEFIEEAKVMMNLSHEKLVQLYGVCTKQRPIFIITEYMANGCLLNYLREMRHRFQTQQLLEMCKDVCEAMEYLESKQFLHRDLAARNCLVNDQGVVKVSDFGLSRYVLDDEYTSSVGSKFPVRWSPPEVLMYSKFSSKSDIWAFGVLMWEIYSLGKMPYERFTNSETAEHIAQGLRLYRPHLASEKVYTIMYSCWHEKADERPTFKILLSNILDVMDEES

With `C=CC(=O)N1CCCC(n2c(C)c(-c3ccc(C(=O)Nc4ccccn4)cc3C)c3c(N)ncnc32)C1` (single isomer, unassigned) [(Ra)-3.10], the half-inhibitory concentration (IC50) in experiment [1] is 0.128 µM; in experiment [2] it was 0.0242 µM.
With `C=CC(=O)N1CCC[C@H](n2c(C)c(-c3ccc(Oc4ccccc4)cc3C)c3c(N)ncnc32)C1` (single isomer, unassigned) [(Ra)-3.2], the half-maximal inhibitory concentration (IC50) is 0.187 µM in experiment [1], 0.425 µM in experiment [2], more than 10 µM in experiment [3] and more than 10 µM in experiment [4]. Further, the “improvement in affinity/potency towards BTK over the diastereomer (Ra, R) / (Ra)-3.1” value in experiment [2] (fold, BTK IC50 425 nM vs 3307 nM) amounted to 10 ×.
In the case of `C=CC(=O)N1CCC[C@@H](n2nc(-c3ccc(Oc4ccccc4)cc3C)c3c(N)ncnc32)C1` [3.7], the IC50 turned out to be 0.0084 µM in experiment [1] and 0.0055 µM in experiment [2].
Consider `C=CC(=O)N1CCC[C@@H](n2c(C)c(-c3ccc(Oc4ccccc4)cc3C)c3c(N)ncnc32)C1` (single isomer, unassigned) [(Ra)-3.1], for which the concentration for half-maximal inhibition (IC50) in experiment [1] was 1.81 µM; in experiment [2] it was 3.31 µM; in experiment [3], more than 10 µM; in experiment [4], more than 10 µM.
Regarding `C=CC(=O)N1CCCC(n2c(C)c(-c3ccc(C(=O)Nc4ccccn4)cc3C)c3c(N)ncnc32)C1` (single isomer, unassigned) [(Sa)-3.10], the IC50 came out at 0.0904 µM in experiment [1] and 0.0217 µM in experiment [2].
In the same order, the values of `C=CC(=O)N1CCCC(n2nc(-c3c(C)cc(Oc4ccccc4)cc3C)c3c(N)ncnc32)C1` (stereo not shown) [3.8] are 0.174 µM and 0.0374 µM.
Regarding `C=CC(=O)N1CCC[C@H](n2c(C)c(-c3ccc(Oc4ccccc4)cc3)c3c(N)ncnc32)C1` [3.3], the figures for the IC50 in experiment [1] and in experiment [2] were 0.451 µM and 0.444 µM, respectively.
In the case of `C=CC(=O)N1CCC[C@@H](n2cc(-c3ccc(Oc4ccccc4)cc3C)c3c(N)ncnc32)C1` [3.6], half-maximal inhibition in experiment [1] (IC50) required 0.014 µM. Moreover, in experiment [2], the IC50 worked out at 0.0064 µM and the “selectivity for BTK over BLK (BTK/BLK selectivity)” value is reported as “about 2 ×”.
Consider `C=CC(=O)N1CCC[C@H](n2c(C)c(-c3ccc(Oc4ccccc4)cc3C)c3c(N)ncnc32)C1` (single isomer, unassigned) [(Sa)-3.2], for which the IC50 was 1.73 µM in experiment [1], 3.92 µM in experiment [2], more than 10 µM in experiment [3] and more than 10 µM in experiment [4].
For `C=CC(=O)N1CCC[C@@H](n2cc(-c3ccc(Oc4ccccc4)cc3)c3c(N)ncnc32)C1` [3.4], the IC50 stood at 0.0091 µM in experiment [1] and 0.0027 µM in experiment [2].
Take `C=CC(=O)N1CCC[C@@H](n2c(C)c(-c3ccc(Oc4ccccc4)cc3C)c3c(N)ncnc32)C1` (single isomer, unassigned) [(Sa)-3.1]: the IC50 in experiment [1] was 9.96 µM; in experiment [2], more than 10 µM; in experiment [3], more than 10 µM; in experiment [4], more than 10 µM.
The compound `C=CC(=O)N1CCCC(n2nc(-c3ccc(C(=O)Nc4ccccn4)cc3C)c3c(N)ncnc32)C1` (stereo not shown) [3.11] yielded a half-maximal inhibitory concentration (IC50) in experiment [1] of 0.0324 µM. In experiment [2], the half-maximal inhibitory concentration (IC50) was found to be 0.00112 µM and the “selectivity for BTK over BLK (BTK/BLK selectivity)” value turned out to be 30 ×.
With `C=CC(=O)N1CCC[C@H](n2cc(-c3ccc(Oc4ccccc4)cc3)c3c(N)ncnc32)C1` [3.5], the figures for the IC50 in experiment [1] and in experiment [2] were 0.0559 µM and 0.0173 µM, respectively.
`C=CC(=O)N1CCC[C@@H](n2cc(-c3ccc(Oc4ccccc4)cc3)c3c(N)ncnc32)C1` (racemic) [Rac]: the half-inhibitory concentration (IC50) in experiment [1] was determined as 0.00029 µM; in experiment [2] it was 0.00047 µM; in experiment [3], 0.451 µM.

What is called IC50 is the concentration that gives 50% inhibition. Read a high IC50 as weaker potency.
